From ChEMBL document CHEMBL4118097, “Selective Inhibitors of Dual Leucine Zipper Kinase (DLK, MAP3K12) with Activity in a Model of Alzheimer's Disease” (J Med Chem, 2017)
Active and inactive are the calls of the source. No cut-off for these calls is given here.

Legend:
[1] = target: Calcium/calmodulin-dependent protein kinase type IV (Homo sapiens) (UniProt Q16566); experiment: Inhibition of recombinant full length GST-tagged human CamK4 expressed in Escherichia coli at 1 uM by FRET assay relative to control
Calcium/calmodulin-dependent protein kinase type IV (Homo sapiens), sequence (Q16566 whole entry): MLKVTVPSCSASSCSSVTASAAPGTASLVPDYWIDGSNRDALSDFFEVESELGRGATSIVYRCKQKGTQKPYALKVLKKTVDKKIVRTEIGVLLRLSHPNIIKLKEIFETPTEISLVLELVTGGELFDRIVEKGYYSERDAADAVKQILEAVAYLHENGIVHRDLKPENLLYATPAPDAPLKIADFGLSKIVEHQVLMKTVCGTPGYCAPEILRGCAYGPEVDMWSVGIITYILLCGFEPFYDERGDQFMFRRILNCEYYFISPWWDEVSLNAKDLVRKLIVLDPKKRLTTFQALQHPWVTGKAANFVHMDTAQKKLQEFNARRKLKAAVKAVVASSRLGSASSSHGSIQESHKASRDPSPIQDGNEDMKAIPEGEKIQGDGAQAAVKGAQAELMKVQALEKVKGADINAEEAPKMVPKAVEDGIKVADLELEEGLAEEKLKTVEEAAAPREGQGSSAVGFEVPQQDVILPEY

[2] = target: Serine/threonine-protein kinase PAK 1 (Homo sapiens) (UniProt Q13153); experiment: Inhibition of recombinant full length GST-tagged human PAK1 expressed in baculovirus expression system at 1 uM by FRET assay relative to control
Serine/threonine-protein kinase PAK 1 (Homo sapiens), sequence (Q13153 whole entry, the tested form may be a part): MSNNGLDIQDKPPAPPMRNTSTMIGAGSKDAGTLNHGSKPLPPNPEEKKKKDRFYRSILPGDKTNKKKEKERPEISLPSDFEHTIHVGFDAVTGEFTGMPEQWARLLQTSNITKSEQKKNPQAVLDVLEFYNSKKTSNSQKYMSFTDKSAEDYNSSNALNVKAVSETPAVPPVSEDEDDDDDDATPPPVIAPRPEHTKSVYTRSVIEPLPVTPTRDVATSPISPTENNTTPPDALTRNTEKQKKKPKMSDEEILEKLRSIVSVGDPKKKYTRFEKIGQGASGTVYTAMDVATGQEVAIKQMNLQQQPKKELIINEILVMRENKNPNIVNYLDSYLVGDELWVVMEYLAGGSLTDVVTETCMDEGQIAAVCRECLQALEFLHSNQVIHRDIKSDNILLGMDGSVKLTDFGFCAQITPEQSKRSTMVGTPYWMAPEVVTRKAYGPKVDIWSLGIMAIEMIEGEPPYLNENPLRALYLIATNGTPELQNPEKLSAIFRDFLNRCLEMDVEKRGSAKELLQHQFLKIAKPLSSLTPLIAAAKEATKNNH

[3] = target: Serine/threonine-protein kinase PAK 4 (Homo sapiens, UniProt O96013); experiment: Inhibition of recombinant GST-tagged human PAK4 catalytic domain expressed in baculovirus expression system by FRET assay
Serine/threonine-protein kinase PAK 4, sequence (O96013 whole entry, the tested form may be a part): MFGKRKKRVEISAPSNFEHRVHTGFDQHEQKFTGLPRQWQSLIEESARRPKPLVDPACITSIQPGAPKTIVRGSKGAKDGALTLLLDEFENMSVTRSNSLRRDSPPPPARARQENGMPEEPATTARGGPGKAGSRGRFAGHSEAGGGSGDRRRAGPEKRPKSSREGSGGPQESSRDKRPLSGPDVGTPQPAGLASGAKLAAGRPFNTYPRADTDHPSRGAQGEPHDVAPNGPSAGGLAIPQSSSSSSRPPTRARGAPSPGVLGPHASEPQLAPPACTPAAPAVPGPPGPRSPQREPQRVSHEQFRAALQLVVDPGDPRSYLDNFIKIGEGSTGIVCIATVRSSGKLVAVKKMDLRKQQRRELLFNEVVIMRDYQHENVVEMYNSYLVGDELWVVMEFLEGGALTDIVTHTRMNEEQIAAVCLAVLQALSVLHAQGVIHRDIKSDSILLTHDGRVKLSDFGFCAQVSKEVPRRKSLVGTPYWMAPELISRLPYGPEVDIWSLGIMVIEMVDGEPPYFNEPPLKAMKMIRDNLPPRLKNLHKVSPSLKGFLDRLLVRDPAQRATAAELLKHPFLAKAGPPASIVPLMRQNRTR

[4] = target: Calcium/calmodulin-dependent protein kinase type 1 (Homo sapiens) (UniProt Q14012); experiment: Inhibition of recombinant full length His-tagged human CaMK1 expressed in baculovirus expression system at 1 uM by FRET assay relative to control
Calcium/calmodulin-dependent protein kinase type 1 (Homo sapiens), sequence (Q14012 whole entry, looked up): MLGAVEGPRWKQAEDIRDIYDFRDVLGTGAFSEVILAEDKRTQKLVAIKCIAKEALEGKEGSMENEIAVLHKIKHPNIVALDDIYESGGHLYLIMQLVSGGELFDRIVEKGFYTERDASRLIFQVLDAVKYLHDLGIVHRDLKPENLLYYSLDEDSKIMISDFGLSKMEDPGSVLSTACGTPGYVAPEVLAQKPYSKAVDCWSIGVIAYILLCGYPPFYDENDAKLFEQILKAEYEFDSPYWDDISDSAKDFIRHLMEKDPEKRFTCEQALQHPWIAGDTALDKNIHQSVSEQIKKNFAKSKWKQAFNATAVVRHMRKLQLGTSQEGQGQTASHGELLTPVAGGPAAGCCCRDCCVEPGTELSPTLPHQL

Mus musculus = experiment: Down regulation of phosphorylated JNK level in cortical lysate of PS2APP mouse model at 15 to 50 mg/kg, po administered as single dose after 6 hrs by Western blot analysis; format: functional, organism-based
[5] = target: T1, Mitogen-activated protein kinase kinase kinase 12 (Homo sapiens, UniProt Q12852); experiment: Inhibition of doxycycline inducible human DLK transfected in HEK293 cells assessed as JNK phosphorylation after […] in presence of 10% bovine serum by Hoechst-33342 staining-based assay; format: cell-based
T1 sequence (Q12852 whole entry): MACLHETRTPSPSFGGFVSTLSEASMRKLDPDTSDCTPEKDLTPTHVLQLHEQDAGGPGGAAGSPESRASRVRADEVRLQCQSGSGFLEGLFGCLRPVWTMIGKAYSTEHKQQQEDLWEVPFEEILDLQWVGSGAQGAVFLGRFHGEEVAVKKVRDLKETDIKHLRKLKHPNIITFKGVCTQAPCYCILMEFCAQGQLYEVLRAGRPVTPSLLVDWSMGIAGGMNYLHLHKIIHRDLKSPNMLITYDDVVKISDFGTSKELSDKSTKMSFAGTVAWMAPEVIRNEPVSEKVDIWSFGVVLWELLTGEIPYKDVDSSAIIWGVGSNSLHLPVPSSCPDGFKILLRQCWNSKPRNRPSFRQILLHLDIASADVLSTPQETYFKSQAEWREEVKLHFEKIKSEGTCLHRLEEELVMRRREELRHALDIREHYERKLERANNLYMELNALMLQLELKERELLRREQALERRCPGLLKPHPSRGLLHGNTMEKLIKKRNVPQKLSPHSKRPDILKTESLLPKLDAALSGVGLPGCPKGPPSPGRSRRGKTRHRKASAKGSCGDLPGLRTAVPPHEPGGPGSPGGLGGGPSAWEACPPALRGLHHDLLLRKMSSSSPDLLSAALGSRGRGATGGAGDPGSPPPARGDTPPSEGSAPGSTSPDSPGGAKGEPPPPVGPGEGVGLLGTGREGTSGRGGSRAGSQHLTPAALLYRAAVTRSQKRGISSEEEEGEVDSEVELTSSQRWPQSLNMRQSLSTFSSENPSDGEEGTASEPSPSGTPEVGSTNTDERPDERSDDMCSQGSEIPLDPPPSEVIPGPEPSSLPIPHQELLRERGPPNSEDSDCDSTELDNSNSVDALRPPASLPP

[6] = target: Serine/threonine-protein kinase Nek9 (Homo sapiens) (UniProt Q8TD19); experiment: Inhibition of recombinant full length GST-tagged human NEK9 catalytic domain expressed in baculovirus expression system at 1 uM by FRET assay relative to control
Serine/threonine-protein kinase Nek9 (Homo sapiens), sequence (Q8TD19 whole entry, the tested form may be a part): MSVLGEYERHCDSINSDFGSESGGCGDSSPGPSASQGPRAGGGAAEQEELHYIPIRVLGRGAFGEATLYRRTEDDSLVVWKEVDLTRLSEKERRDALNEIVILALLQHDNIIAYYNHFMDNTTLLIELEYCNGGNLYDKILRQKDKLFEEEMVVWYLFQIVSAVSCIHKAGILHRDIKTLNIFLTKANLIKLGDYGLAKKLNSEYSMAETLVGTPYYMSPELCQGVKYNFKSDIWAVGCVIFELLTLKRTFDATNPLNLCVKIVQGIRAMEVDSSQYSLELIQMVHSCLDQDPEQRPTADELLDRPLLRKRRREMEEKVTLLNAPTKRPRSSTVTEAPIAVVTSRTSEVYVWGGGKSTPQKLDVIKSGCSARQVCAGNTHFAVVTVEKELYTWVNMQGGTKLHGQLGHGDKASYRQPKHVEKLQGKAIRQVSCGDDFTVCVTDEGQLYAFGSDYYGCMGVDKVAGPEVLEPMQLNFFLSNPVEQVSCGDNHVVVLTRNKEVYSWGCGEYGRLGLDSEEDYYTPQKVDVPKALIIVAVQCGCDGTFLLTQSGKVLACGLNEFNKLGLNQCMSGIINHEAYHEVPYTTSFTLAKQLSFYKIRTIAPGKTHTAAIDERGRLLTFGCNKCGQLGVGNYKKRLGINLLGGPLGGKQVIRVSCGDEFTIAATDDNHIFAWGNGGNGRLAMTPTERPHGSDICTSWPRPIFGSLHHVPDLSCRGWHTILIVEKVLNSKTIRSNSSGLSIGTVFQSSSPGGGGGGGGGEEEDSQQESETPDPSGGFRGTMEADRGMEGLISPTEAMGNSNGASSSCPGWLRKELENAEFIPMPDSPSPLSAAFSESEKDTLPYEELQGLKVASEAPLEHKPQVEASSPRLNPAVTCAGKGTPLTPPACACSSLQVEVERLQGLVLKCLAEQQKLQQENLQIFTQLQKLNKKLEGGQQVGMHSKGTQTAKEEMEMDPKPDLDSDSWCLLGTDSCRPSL

Row | SMILES | inhibition [1] [%] | inhibition [2] [%] | IC50 [3] [nM] | inhibition [4] [%] | Activity (Mus musculus) | IC50 [5] [nM] | inhibition [6] [%]
1 | Nc1ncc(-c2cc([C@H]3[C@@H]4CN(C5COC5)C[C@@H]43)n(CC3CC3)n2)cc1C(F)(F)F | 12.4 | 0.7 | – | – | – | – | –
2 | CC(C)n1nc(-c2cnc(N)c(OC(F)(F)F)c2)cc1[C@H]1[C@@H]2CN(C3COC3)C[C@@H]21 | – | – | 673 | -5.9 | Active | 129 | -3.4
